Measurements published in ChEMBL document CHEMBL1137999, “A novel series of p38 MAP kinase inhibitors for the potential treatment of rheumatoid arthritis” (Bioorg Med Chem Lett, 2004).
In brackets after ≈: the same amount, converted by molar mass.

Columns and labels:
[1] = biological target: Mitogen-activated protein kinase 14 (Homo sapiens, UniProt Q16539)
Homo sapiens = organism: Homo sapiens; assay: tissue or blood
cells = conditions: Homo sapiens
Mus musculus [2] = organism: Mus musculus; assay: animal or person; type: functional
[3] = Area under plasma-time concentration curve when administered at 1 mg/kg dose; type: ADME, organism-based; parameters: dose 1 mg/kg; conditions: rat
Mus musculus [4] = organism: Mus musculus; assay: animal or person; type: functional; remark: listed apart in the source
Mus musculus [5] = organism: Mus musculus; assay: animal or person; type: functional; remark: listed apart in the source
[6] = Protein binding was determined in human; type: ADME
[7] = Oral bioavailability at 3 mg/kg; type: ADME, organism-based; conditions: rat, in vivo, read-out: Bioavailabiility
[8] = Volume distribution after iv administration of 1 mg/kg; type: ADME, organism-based; parameters: dose 1 mg/kg, route intravenous; conditions: rat, in vivo, read-out: Distribution
[9] = Solubility was determined; type: physicochemical
[10] = Log D value at pH 7.4; type: physicochemical; conditions: buffer

Mitogen-activated protein kinase 14, sequence (Q16539 whole entry): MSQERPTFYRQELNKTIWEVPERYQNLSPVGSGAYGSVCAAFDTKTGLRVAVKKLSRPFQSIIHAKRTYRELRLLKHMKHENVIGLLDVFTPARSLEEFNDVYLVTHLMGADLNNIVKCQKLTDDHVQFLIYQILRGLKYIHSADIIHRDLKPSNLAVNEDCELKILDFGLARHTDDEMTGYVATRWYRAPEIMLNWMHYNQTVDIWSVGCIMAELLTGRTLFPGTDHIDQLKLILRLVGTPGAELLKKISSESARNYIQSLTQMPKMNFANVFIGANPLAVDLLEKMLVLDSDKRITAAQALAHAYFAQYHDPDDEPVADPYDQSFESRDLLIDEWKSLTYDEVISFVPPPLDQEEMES

`Cc1ccc(NC(=O)c2cccc(N3CCOCC3)c2)cc1NC(=O)c1ccc(OCc2cccnc2)cc1` showed an IC50 [1] of 90 nM and an IC50 (Homo sapiens) of 14700 nM.
In the case of `COc1ccc(C(=O)Nc2cc(NC(=O)c3cccc(N(C)C)c3)ccc2Cl)cc1OC`, the IC50 [1] is reported as 220 nM and the IC50 (cells) is reported as 6400 nM.
With `Cc1ccc(NC(=O)c2cccc(N3CCOCC3)c2)cc1NC(=O)c1ccc(OCc2cscn2)cc1` the inhibition in vivo at 3 mg/kg (Mus musculus [2]) was 28%, the AUC [3] was less than 0.12 µM·h and the inhibition in vivo at 10 mg/kg (Mus musculus [4]) was 44%. For the same molecule, the inhibition in vivo at 30 mg/kg (Mus musculus [5]) was 56%.
`COc1ccc(C(=O)Nc2cccc(NC(=O)c3cccc(N(C)C)c3)c2)cc1OC` showed an IC50 [1] greater than 20000 nM.
For `Cc1ccc(NC(=O)c2cc(F)cc(N3CCOCC3)c2)cc1NC(=O)c1ccc(OCc2ccncc2)cc1`, the AUC [3] was less than 0.02 µM·h, the inhibition in vivo at 10 mg/kg (Mus musculus [4]; dose 10 mg/kg) was 24% and the inhibition in vivo at 30 mg/kg (Mus musculus [5]; dose 30 mg/kg) was 40%. The IC50 [1] was 10 nM and the IC50 (Homo sapiens) was 3400 nM.
Molecule `COc1ccc(C(=O)Nc2cc(NC(=O)c3cccc(N(C)C)c3)ccc2C)cc1` has an IC50 [1] of 180 nM and an IC50 (cells) greater than 50000 nM.
`Cc1ccc(NC(=O)c2ccnc(N3CCOCC3)c2)cc1NC(=O)c1ccc(OCc2ccccn2)cc1` showed a Binding [6] of 99.89%, a bioavailability [7] of 46% and a Vd [8] of 1.6 L/kg. It also gave a solubility [9] of less than 1 µM, an IC50 [1] of 10 nM and an IC50 (Homo sapiens) of 2800 nM.
`COCCOc1ccc(C(=O)Nc2cc(NC(=O)c3cccc(N(C)C)c3)ccc2C)cc1` gave an IC50 [1] of 270 nM and an IC50 (cells) of 3400 nM.
For `COc1ccc(C(=O)Nc2cc(NC(=O)c3cccc(N(C)C)c3)ccc2Br)cc1OC`, the IC50 [1] was 340 nM and the IC50 (cells) was 9500 nM.
For `Cc1ccc(NC(=O)c2cc(F)cc(N3CCOCC3)c2)cc1NC(=O)c1ccc(OCc2cscn2)cc1`, the AUC [3] was 0.71 µM·h, the inhibition in vivo at 10 mg/kg (Mus musculus [4]) was 37% and the inhibition in vivo at 30 mg/kg (Mus musculus [5]) was 81%. For the same molecule, the IC50 [1] was 10 nM and the IC50 (Homo sapiens) was 2500 nM.
Molecule `Cc1ccc(NC(=O)c2cc(F)cc(N3CCCC3)c2)cc1NC(=O)c1ccc(OCc2ccccn2)cc1` has an AUC [3] of 0.07 µM·h, an inhibition in vivo at 10 mg/kg (Mus musculus [4]) of 3% and an inhibition in vivo at 30 mg/kg (Mus musculus [5]) of 7%.
`Cc1ccc(NC(=O)c2cccc(N3CCOCC3)c2)cc1NC(=O)c1ccc(OCc2ccccn2)cc1` showed an AUC [3] of 1.38 µM·h and an inhibition in vivo at 30 mg/kg (Mus musculus [5]; dose 30 mg/kg) of 59%.
Molecule `CCOCCOc1ccc(C(=O)Nc2cc(NC(=O)c3cccc(N(C)C)c3)ccc2C)cc1` has an IC50 [1] of 310 nM and an IC50 (cells) of 9500 nM.
With `CCOc1ccc(C(=O)Nc2cc(NC(=O)c3cccc(N(C)C)c3)ccc2C)cc1` the IC50 [1] was 60 nM and the IC50 (cells) was 7000 nM.
For `Cc1ccc(NC(=O)c2cccc(N(C)C)c2)cc1NC(=O)c1ccc(O)cc1`, the Binding [6] was 99.7%, the logD [10] was 2.7 and the solubility [9] was 10 µM (≈ 3.89 µg/mL). The IC50 [1] was 180 nM and the IC50 (cells) was greater than 50000 nM.
With `Cc1ccc(NC(=O)c2cc(F)cc(N3CCOCC3)c2)cc1NC(=O)c1ccc(OCc2ccccn2)cc1` the AUC [3] was 0.13 µM·h, the inhibition in vivo at 30 mg/kg (Mus musculus [5]; dose 30 mg/kg) was 43% and the IC50 [1] was 60 nM. The IC50 (Homo sapiens) was 11200 nM.
`COc1cc(C(=O)Nc2cc(NC(=O)c3cccc(N(C)C)c3)ccc2C)cc(OC)c1OC` showed an IC50 [1] of 230 nM and an IC50 (cells) of 3900 nM.
`Cc1ccc(NC(=O)c2cccc(N3CCOCC3)c2)cc1NC(=O)c1ccc(OCc2ccncc2)cc1` showed an inhibition in vivo at 3 mg/kg (Mus musculus [2]; dose 3 mg/kg) of 14%, an AUC [3] of 0.13 µM·h and an inhibition in vivo at 10 mg/kg (Mus musculus [4]; dose 10 mg/kg) of 43%. For the same molecule, the inhibition in vivo at 30 mg/kg (Mus musculus [5]; dose 30 mg/kg) was 75%, the IC50 [1] was 20 nM and the IC50 (Homo sapiens) was 3300 nM.
`COc1ccc(C(=O)Nc2ccc(C)c(NC(=O)c3cccc(N(C)C)c3)c2)cc1OC` showed an IC50 [1] greater than 20000 nM.
`COc1ccc(C(=O)N(C)c2cc(NC(=O)c3cccc(N(C)C)c3)ccc2C)cc1OC` showed an IC50 [1] greater than 20000 nM.
`COc1ccc(C(=O)Nc2cc(NC(=O)c3cccc(N(C)C)c3)ccc2C)c(OC)c1` showed an IC50 [1] of 100 nM and an IC50 (cells) greater than 50000 nM.
Work on `CCOc1ccc(C(=O)Nc2cc(NC(=O)c3cccc(N(C)C)c3)ccc2C)cc1OCC` yielded an IC50 [1] of 50 nM and an IC50 (cells) of 4500 nM.
`COc1ccc(C(=O)Nc2cc(NC(=O)c3cccc(N(C)C)c3)ccc2F)cc1OC` showed an IC50 [1] of 1900 nM and an IC50 (cells) of 22000 nM.
With `Cc1nc(COc2ccc(C(=O)Nc3cc(NC(=O)c4cccc(N5CCOCC5)c4)ccc3C)cc2)cs1` the inhibition in vivo at 3 mg/kg (Mus musculus [2]; dose 3 mg/kg) was 33%, the AUC [3] was 2.03 µM·h and the inhibition in vivo at 10 mg/kg (Mus musculus [4]; dose 10 mg/kg) was 44%. It also gave an inhibition in vivo at 30 mg/kg (Mus musculus [5]; dose 30 mg/kg) of 71%, an IC50 [1] of 20 nM and an IC50 (Homo sapiens) of 14600 nM.
For `Cc1ccc(NC(=O)c2cc(N3CCOCC3)cc(C(F)(F)F)c2)cc1NC(=O)c1ccc(OCc2ccccn2)cc1`, the AUC [3] was 0.04 µM·h, the inhibition in vivo at 10 mg/kg (Mus musculus [4]; dose 10 mg/kg) was 4% and the inhibition in vivo at 30 mg/kg (Mus musculus [5]; dose 30 mg/kg) was 55%. For the same molecule, the IC50 [1] was 20 nM and the IC50 (Homo sapiens) was 10200 nM.
In the case of `Cc1ccc(NC(=O)c2cccc(N3CCOCC3)c2)cc1NC(=O)c1ccc(OCc2ccccc2)cc1`, the IC50 [1] is reported as 30 nM and the IC50 (Homo sapiens) is reported as 40000 nM.
In the case of `COc1ccc(C(=O)Nc2cc(NC(=O)c3cccc(N(C)C)c3)ccc2C)cc1OC`, the IC50 [1] is reported as 180 nM and the IC50 (cells) is reported as 6400 nM.
For `Cc1nc(COc2ccc(C(=O)Nc3cc(NC(=O)c4cc(F)cc(N5CCOCC5)c4)ccc3C)cc2)cs1`, the inhibition in vivo at 3 mg/kg (Mus musculus [2]; dose 3 mg/kg) was 0%, the AUC [3] was 0.73 µM·h and the inhibition in vivo at 10 mg/kg (Mus musculus [4]; dose 10 mg/kg) was 27%. It also gave an inhibition in vivo at 30 mg/kg (Mus musculus [5]; dose 30 mg/kg) of 35%, an IC50 [1] of 90 nM and an IC50 (Homo sapiens) of 2800 nM.
`C[S+]([O-])c1ccc(-c2nc(-c3ccc(F)cc3)c(-c3ccncc3)[nH]2)cc1` (centres undefined) [SB-203580] gave an inhibition in vivo at 3 mg/kg (Mus musculus [2]) of 0%, an inhibition in vivo at 10 mg/kg (Mus musculus [4]) of 47% and an inhibition in vivo at 30 mg/kg (Mus musculus [5]) of 50%.
